ChEMBL document CHEMBL1136266, “beta-Homolysine oligomers: a new class of Trojan carriers” (Bioorg Med Chem Lett, 2003)

Columns and labels:
Assay type in all cases: functional, cell-based
Details in all cases: Homo sapiens
DU-145 [1] = assay: Cellular uptake of compound into DU145 tumor cells by laser scanning cytometry at a concentration of 0.1 uM
DU-145 [2] = assay: Cellular uptake of compound into DU145 tumor cells by laser scanning cytometry at a concentration of 10 uM
DU-145 [3] = assay: Cellular uptake of compound into DU145 tumor cells by laser scanning cytometry at a concentration of 1 uM
HCT-15 [4] = assay: Cellular uptake of compound into HCT15 tumor cells by laser scanning cytometry at a concentration of 0.1 uM
HCT-15 [5] = assay: Cellular uptake of compound into HCT15 tumor cells by laser scanning cytometry at a concentration of 10 uM
HCT-15 [6] = assay: Cellular uptake of compound into HCT15 tumor cells by laser scanning cytometry at a concentration of 1 uM

Row | SMILES | Uptake (DU-145 [1]) [%] | Uptake (DU-145 [2]) [%] | Uptake (DU-145 [3]) [%] | Uptake (HCT-15 [4]) [%] | Uptake (HCT-15 [5]) [%] | Uptake (HCT-15 [6]) [%]
1 | NCCCCC(CC(N)=O)NC(=O)CC(CCCCN)NC(=O)CC(CCCCN)NC(=O)CC(CCCCN)NC(=O)CC(CCCCN)NC(=O)CC(CCCCN)NC(=O)CC(CCCCN)NC(=O)CC(CCCCN)NC(=O)COCCOCCNC(=O)c1ccccc1C1c2ccc(O)cc2Oc2cc(O)ccc21 (stereo not given) | 98.5 | 89.5 | 98.9 | 99.5 | 99.9 | 99.9
2 | O=C1OC2(c3ccc(O)cc3Oc3cc(O)ccc32)c2ccccc21 | 0.1 | 0.3 | 0.8 | 0.3 | 0.7 | 1.1
3 | NCCCCC(CC(N)=O)NC(=O)CC(CCCCN)NC(=O)CC(CCCCN)NC(=O)CC(CCCCN)NC(=O)CC(CCCCN)NC(=O)CC(CCCCN)NC(=O)CC(CCCCN)NC(=O)COCCOCCNC(=O)c1ccccc1C1c2ccc(O)cc2Oc2cc(O)ccc21 (stereo not given) | 92.5 | 98.8 | 85.8 | 99.9 | 99.8 | 99.8
4 | NCCCCC(CC(N)=O)NC(=O)CC(CCCCN)NC(=O)CC(CCCCN)NC(=O)CC(CCCCN)NC(=O)CC(CCCCN)NC(=O)CC(CCCCN)NC(=O)COCCOCCNC(=O)c1ccccc1C1c2ccc(O)cc2Oc2cc(O)ccc21 (stereo not given) | 40.4 | 94.9 | 69.5 | 99.9 | 99.6 | 99.7
5 | NCCCCC(CC(N)=O)NC(=O)CC(CCCCN)NC(=O)CC(CCCCN)NC(=O)CC(CCCCN)NC(=O)CC(CCCCN)NC(=O)COCCOCCNC(=O)c1ccccc1C1c2ccc(O)cc2Oc2cc(O)ccc21 (stereo not given) | 71.9 | 97.8 | 76.5 | 99.8 | 99.8 | 99.6
